Patent US20250127789A1, “COMPOSITIONS USEFUL FOR MODULATING SPLICING” (SKYHAWK THERAPEUTICS, INC., priority 2021, published 2025)

Legend:
[1] = tested on: ATXN3 exon 4 skipped transcripts in SK-N-MC cells; assay: ATXN3 quantitative splicing assay (qPCR of exon 4 skipped transcripts); assay type: cell-based; settings: Human neuroblastoma SK-N-MC cells, 24 h treatment, read-out: ATXN 3 E4 Skipping EC50
Description: Human neuroblastoma SK-N-MC cells were plated in 384-well plates at 20,000 cells/well. Twenty-four hours after plating, cells were treated with compounds for 24 hat appropriate concentrations ranging from 30 µM to 0.6 nM (0.3% DMSO). Treated cells were lysed in 15 μL of lysis buffer, and cDNA was synthesized using the Fast Advanced Cells-to-Ct kit Two μL of each cDNA was used in PCR reactions to confirm the exon 4 skipped transcripts of ATXN3. A second set of primers/probe E4E5 was used to detect the transcripts containing exon 4. The third set of primers/probe E8E9 was used to detect total gene level of ATXN3. The qPCR reactions were prepared in 384-well plates in 10 μL volume, using TaqMan™ Fast Advanced Master Mix with primers and probes shown in the table below. Reactions were run in a Quant Studio 6 qPCR instrument with default settings.
The primers and probes are listed below in Table 3.

[2] = tested on: total ATXN3 protein in SK-N-MC cells; assay: ATXN3 total protein assay (MSD); assay type: cell-based; settings: Human neuroblastoma SK-N-MC cells, 48 hours incubation, read-out: ATXN3 Protein Potency IC50
Description: Human neuroblastoma SK-N-MC cells were seeded at 10,000 cells/well in 384 well plates one day prior to compound treatment. The concentrations of compounds were tested at appropriate doses ranging from 30 μM to 0.6 nM. After incubation for 48 hours, the cells were lysed with 25 μL of lysis buffer containing protease inhibitors, and total ATXN3 protein levels were assessed by Mesoscale Discovery (MSD) assay developed with one pair of anti-ATXN3 antibodies. The capture and detect antibodies were raised in mouse and rabbit respectively. Anti-rabbit MSD-ST antibody was used for secondary antibody.
ATXN3 recombinant protein was used for standards. The readouts were captured with 35 μL of MSD read buffer and multi-array 384-well high binding plates.

SMILES | EC50 [1] [µM] | IC50 [2] [µM]
Cc1csc2c(NCc3ccncc3)nnnc12 [Compound 3, 7-methyl-N-(pyridin-4-ylmethyl)thieno[3,2-d][1,2,3]triazin-4-amine] | ≥ 10 | ≥ 10
Cc1c(C[C@H](C)N)sc2c(NCc3ccncc3)nnnc12 [Compound 4, (S)-6-(2-aminopropyl)-7-methyl-N-(pyridin-4-ylmethyl)thieno[3,2-d][1,2,3]triazin-4-amine] | 0.501 to 5 | 0.501 to 5
Cc1csc2c(NCc3ccccc3)nnnc12 [Compound 1, N-benzyl-7-methylthieno[3,2-d][1,2,3]triazin-4-amine] | ≥ 10 | ≥ 10
Cc1c(C[C@H](C)N)sc2c(NCc3ccccc3)nnnc12 [Compound 2, (S)-6-(2-aminopropyl)-N-benzyl-7-methylthieno[3,2-d][1,2,3]triazin-4-amine] | ≥ 10 | ≥ 10
